From patent US8614203B2, “Methods for the treatment of a central nervous system injury via a tapered administration protocol” (Emory University, priority 2005, dated 2013)

Columns and labels:
contusion injury = conditions: following a contusion injury (Roof et al. 1994); cited from earlier work
traumatic brain injury [1] = experiment: Example 2: dose response, Morris water maze after TBI, cyclodextrin vehicle; assay type: in vivo
Description: Beginning one week after surgery, spatial learning ability was assessed in the Morris water maze (MWM) task described previously. Each animal was tested for a total of 10 days in two 5-day trial blocks (acquisition and retention respectively). Animals were placed in the pool (nose facing the pool-wall) at one of four randomly determined starting positions (e.g.: N, S, E, W). Each rat was allowed to swim freely in the pool until it found the hidden platform or until 90 seconds had elapsed. […] Once on the platform, animals were allowed to rest for 10 seconds and then removed from the pool and placed near a heat lamp for warmth. Each rat was given two trials per day with a 20-second intertrial interval (ITI). The dependent measures for this task were latency to find the hidden platform and swim strategy (e.g., percent of time spent in the inner vs. outer annuli). Swim speed measures were recorded daily in order to delineate motor dysfunction from learning impairment.
(§1) Surgery to induce a traumatic brain injury was performed as outlined in Example 1. Behavior testing using the Morris Water Maize was performed as outlined in Example 1 and the methods for the tactical adhesive removal were performed.

[2] = tested on: medial frontal cortex injury or sham surgery; experiment: Example 3: behavioral testing (anxiety, locomotor, sensory neglect), acute vs tapered withdrawal; assay type: in vivo, Sprague-Dawley rats
Description: (§2) Male Sprague-Dawley rats received either medial frontal cortex injury or sham surgery. Injections were given 1 and 6 hours post-injury, and every 24 hours for 7 days. Treatment groups (n=8) encompassed injured (I) and sham (S) acute withdrawal (AW), tapered withdrawal (TW) and vehicle (V) treatments. TW injections were progressively halved over the final two treatments. Behavioral testing was conducted post-surgery, mid- and post-withdrawal. Activity boxes were used to investigate vertical movements and exploration: Sensory neglect and anxiety behaviors were also analyzed. Brain harvesting was performed at 8 days or 3 weeks post-injury. Perfused tissue sections were analyzed for lesion volume and immunohistochemical response. Fresh brain tissue was flash frozen in chilled 2-methyl butane, and then homogenized for Western blot analysis.

ischemic injury = conditions: following ischemic injury in rats (Jiang et al. 1996); cited from earlier work
traumatic brain injury [3] = experiment: Example 2: dose response, sticker removal task (sensory neglect) after TBI, cyclodextrin vehicle; assay type: in vivo
Description: […] Pairs of circular adhesive papers (2 cm dia) were attached to the distal-radial areas of each forepaw and the rats' latencies to remove the stimuli were recorded. Each rat was given four trials (2-min ITI) per testing period with a maximum trial length of 2 minutes.
as §1

GFAP = experiment: Example 3: GFAP staining (reactive astrocytes); assay type: in vivo, Sprague-Dawley rats
Description: as §2

[4] = tested on: medial frontal cortex (MFC) injury or sham; experiment: Example 4: somatosensory neglect of the forepaws; assay type: in vivo, Sprague-Dawley rats
From the text: 60 male Sprague-Dawley rats weighing 290-310 g at the time of injury were used in this experiment. Food and water were provided ad libidum before and after surgery. Animals were handled and weighed daily from their arrival, seven days pre-surgery, to brain extraction three weeks post-surgery. Animals were handled in squads of 12, with n=10 per experimental condition. All animal procedures were approved by the Emory University Animal Care and Use Committee, Protocol #131-2002.
Isofluorane anesthesia was induced for four minutes and 45 seconds at 5% and maintained at 2.5%. Normal body temperature was maintained with a surgical heating pad placed beneath the sterile dressings. The scalp incision area was shaved and sterilized with iodine and isopropanol. A midline incision was made along the scalp and the fascia cleared to expose the surface of the skull. Medial, lateral, and dorsal stereotaxic coordinates were determined at bregma, and a 5-7 mm diameter bilateral craniotomy was performed mid-sagitally, 3 mm anterior to bregma. […] Sutures were used to close the incision after bleeding ceased. Animals were placed in individual heated, clean recovery cages until they awakened, and were returned to clean individual home cages with accessible moistened food pellets. Sham animals were anesthetized, and an incision was made at the top of the head. The fascia was cleared to expose bregma, then the incision was sutured closed. Sham surgeries were matched to lesion surgeries for all experimental conditions.
Sham (S) and lesion (L) animals were randomly assigned to one of three treatment groups: vehicle (VS, VL), acute withdrawal (AWS, AWL), and tapered withdrawal (TWS, TWL). […] Tapering was induced as halved dosages over the last two days of treatment. Dilutions for TW treatments were made with HBC stock. All injections were administered intraperitoneally at one hour post-injury, and subcutaneously at six hours post-injury and every 24 hours through the end of the treatment cycle. Five sets of 12 animals each were used, for a total n=10 for each experimental group over the entire experiment. Of these animals, all were used to acquire behavioral data, four samples were used for protein analysis, and six samples were used for histological analysis for each test condition.
Random order, blinded testing occurred under red light in a quiet environment at one and seven days post-withdrawal, one hour after locomoter activity testing. 1.3 cm diameter circular labels were placed on the left forepaw and the rat placed in the clear plexiglass testing box. The latency required for each rat to remove the sticker with its mouth was recorded, with maximum test duration of two minutes. Each animal was tested three times, with a rest period of two minutes between trials. The testing box was cleaned with 70% ethanol and dried between trials.
All results were expressed as the mean plus or minus the standard error of the mean. Statistical significance was set at p<0.05 for two-tailed tests, and data were analyzed using one-way analysis of variance (ANOVA) followed by LSD post hoc tests. F-values are presented as a preface to post-hoc analysis with all degrees of freedom for Western blotting at (5,18) and for behavior at (5,26).

CC(=O)[C@H]1CC[C@H]2[C@@H]3CCC4=CC(=O)CC[C@]4(C)[C@H]3CC[C@]12C [progesterone, pregn-4-ene-3,20-dione]
post injury cerebral edema (contusion injury): reduces the severity of post injury cerebral edema | Morris water maze performance (traumatic brain injury [1]; high dose 32 mg/kg in a cyclodextrin-containing vehicle): did not show any beneficial effect | Morris water maze performance (traumatic brain injury [1]; low dose 8 mg/kg in a cyclodextrin-containing vehicle): consistent improvement in Morris water maze performance | Morris water maze performance (traumatic brain injury [1]; moderate dose 16 mg/kg in a cyclodextrin-containing vehicle): consistent improvement in Morris water maze performance | anxiety, locomotor and sensory deficits ([2]; injured (AWI) vs tapered withdrawal, injured (TWI)): increase anxiety, locomotor and sensory deficits compared to tapered progesterone withdrawal | behavioral impairments one week after peak of withdrawal ([2]; injured (AWI), one week later): increased behavioral impairments are still evident in AWI animals | motor impairments ([2]; shams (AWS) vs other shams): increased motor impairments compared to all other shams | anxiety ([2]; shams (AWS) vs tapered progesterone rats): increased anxiety compared to tapered progesterone rats | cell damage and neurological deficit (ischemic injury): reduce cell damage and neurological deficit | sticker removal task (sensory neglect), initial (traumatic brain injury [3]; all doses (8, 16, 32 mg/kg), initially): initially produce behavioral recovery | sticker removal task (sensory neglect), later course (traumatic brain injury [3]; high dose (32 mg/kg)): degraded to lesion control levels | sticker removal task (sensory neglect), later course (traumatic brain injury [3]; moderate dose (16 mg/kg), day 21 post-injury): improved to sham levels by day 21 post-injury | reactive astrocytes (GFAP staining) (GFAP; acute withdrawal, injured, rank between TWI and VI): followed by AWL | reactive astrocytes (GFAP staining) (GFAP; tapered withdrawal, injured (TWI)): fewest reactive astrocytes | somatosensory neglect (latency to remove sticker) ([4]; 16 mg/kg in […] HBC, tapered withdrawal, lesion (TWL), one day and one week post-withdrawal): deficiencies were decreased compared to VL and AWL | somatosensory neglect (latency to remove sticker) ([4]; 16 mg/kg, acute withdrawal, lesion (AWL), one day and one week post-withdrawal): AWL and VL did not display differences | somatosensory neglect (latency to remove sticker) ([4]; 16 mg/kg, acute withdrawal, sham (AWS), one day post-withdrawal): elevated sensory deficiencies compared to the TWS and VS groups | somatosensory neglect (latency to remove sticker) ([4]; 16 mg/kg, acute withdrawal, sham (AWS), one week post-withdrawal): these differences were no longer evident | somatosensory neglect (latency to remove sticker) ([4]; tapered withdrawal, sham (TWS), one day and one week post-withdrawal): TWS and VS showed no differences
